Data from publication PMC10940802 (Computational and Structural Biotechnology Journal, 2024).

What was measured:
Assay in all cases: UPLC glycosylation assay, […] nm
Type in all cases: biochemical, Periploca forrestii
Conditions in all cases: UDP-glucose as sugar donor; 10 mM PBS pH 8.0, 37 °C
[1] = system: PfUGT74B4
[2] = system: PfUGT92A8
[3] = system: PfUGT74E7
[4] = system: PfUGT75C6

Row | Km [1] [µM] | Km [2] [µM] | Km [3] [µM] | Km [4] [µM] | Compound
1 | 47.8 | 51.4 | – | – | O=C1CC(O)(c2ccc(O)cc2)Oc2cc(O)cc(O)c21 (centres unmarked) [2-Hydroxynaringenin]
2 | 2.23 | – | – | – | COc1ccc(-c2cc(=O)c3c(O)cc(O)cc3o2)cc1 [Acacetin]
3 | 58.6 | 78.2 | – | – | O=c1cc(-c2ccc(O)cc2)oc2cc(O)c([C@@H]3O[C@H](CO)[C@@H](O)[C@H](O)[C@H]3O)c(O)c12 [Isovitexin]

Further lines, the compound ahead of its results:

Row | Compound | Km [1] [µM] | Km [2] [µM] | Km [3] [µM] | Km [4] [µM]
4 | O=c1cc(-c2ccc(O)cc2)oc2cc(O)cc(O)c12 [Apigenin] | 50.2 | 148 | 5.97 | 29
5 | O=c1cc(-c2ccc(O)c(O)c2)oc2cc(O)c([C@@H]3O[C@H](CO)[C@@H](O)[C@H](O)[C@H]3O)c(O)c12 [Isoorientin] | 65.2 | 134 | – | –
6 | O=c1cc(-c2ccc(O)c(O)c2)oc2cc(O)cc(O)c12 [Luteolin] | 58.3 | 252 | 7.75 | 28.4
7 | O=c1cc(-c2ccc(O)c(O)c2)oc2c([C@@H]3O[C@H](CO)[C@@H](O)[C@H](O)[C@H]3O)c(O)cc(O)c12 [Orientin] | – | 218 | – | –
8 | O=C(CCc1ccc(O)cc1)c1c(O)cc(O)cc1O [Phloretin] | 45.6 | 34.7 | – | –
9 | O=c1cc(-c2ccc(O)cc2)oc2c([C@@H]3O[C@H](CO)[C@@H](O)[C@H](O)[C@H]3O)c(O)cc(O)c12 [Vitexin] | 307 | 94.2 | – | –
